# Source: US4937244A, “Substituted 3-aminosydnonimines, processes for their preparation and their use” (Cassella Aktiengesellschaft, priority 1987, dated 1990)
# Where a name gives a salt, the structure may show the parent alone.
# Tested on: arteria pulmonalis of the guinea pig
# Test: Relaxing action on potassium-depolarized, CaCl2-contracted spiral strips of guinea pig pulmonary artery (modified method of Godfraind and Kaba and of Schuman et al)
# Format: cell-based
# Conditions: Cavia porcellus; spiral strips depolarized with 40 mmol/l potassium; contraction initiated with 0.5 mmol/l CaCl2; cumulative addition; mean value of 4 to 6 strips of vessel; read-out: IC50 (concentration of test substance which inhibits the contraction by 50%)
# Description: The pharmacological action of the compounds of the formula I has been determined by a modified method of Godfraind and Kaba (Arch. Int. Pharmacodyn. Ther. 196, (Suppl) 35 to 49, 1972) and of Schuman et al (Naunyn-Schmiedeberg's Arch Pharmacol. 289 409 to 418, 1975). […], spiral strips of the arteria pulmonalis of the guinea pig are depolarized with 40 mmol/l of potassium after equilibration in calcium-free tyrode solution. Addition of 0.5 mmol/l of CaCl2 then initiates a contraction. The relaxing action of the test substance is determined by cumulative addition in concentrations in steps of 1/2 log 10. The concentration of test substance which inhibits the contraction by 50% (=IC50, mol/l) is determined from the concentration/effects curve (abscissa: -log mol/l of test substance, ordinate: % inhibition of the maximum concentration, mean value of 4 to 6 strips of vessel).
row,IC50 [µM],SMILES
1,30,"CC1(C)CCCC(C)(C)N1[n+]1cc(=N)o[n-]1 [a, 3-(2,2,6,6-Tetramethylpiperidino)-sydnonimine hydrochloride]"
2,3,"CC(C)N1CC(C)(C)N([n+]2cc(=N)o[n-]2)C(C)(C)C1 [b, 3-(2,2,6,6-Tetramethyl-4-isopropyl-piperazin-1-yl)sydnonimine dihydrochloride]"
3,100,"CC1(C)COCC(C)(C)N1[n+]1cc(=N)o[n-]1 [c, 3-(3,3,5,5-Tetramethylmorpholino)-sydnonimine hydrochloride]"
4,300,"CCOC(=O)[N-]c1cn(N2CCOCC2)n[o+]1 [d, N-Ethoxycarbonyl-3-morpholinosydnonimine, reference compound]"
